Test results: ChEMBL document CHEMBL4308834, “Novel Allosteric Activators for Ferroptosis Regulator Glutathione Peroxidase 4” (J Med Chem, 2018)
Activity calls are given as the source filed them. The calls are words filed in the database; no cut-off is given here.

Legend:
[1] = molecular target: T1, Phospholipid hydroperoxide glutathione peroxidase GPX4 (Homo sapiens) (UniProt P36969); assay: Activation of GPX4 in A23187-stimulated human PMN leukocytes assessed as increase in 12-HETE preincubated for 15 mins followed by A23187 addition and measured after 120 mins by LC-MS analysis
T1 sequence (whole entry): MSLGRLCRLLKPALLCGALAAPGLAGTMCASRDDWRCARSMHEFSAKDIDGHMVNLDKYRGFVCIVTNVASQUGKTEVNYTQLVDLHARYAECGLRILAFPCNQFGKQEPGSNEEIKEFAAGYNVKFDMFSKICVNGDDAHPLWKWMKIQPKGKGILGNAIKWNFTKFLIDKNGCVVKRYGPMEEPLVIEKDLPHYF

[2] = Antioxidant activity assessed as DPPH radical scavenging activity at 500 uM; format: functional
[3] = molecular target: T1, Phospholipid hydroperoxide glutathione peroxidase GPX4 (Homo sapiens); assay: Activation of GPX4 (unknown origin) expressed in HEK293T cells harboring luc2P/NF-kBRE/Hygro plasmid assessed as inhibition of IL1beta-stimulated NFkB activation preincubated for 30 mins followed by […] and measured after 6 hrs by luciferase reporter gene assay; format: cell-based
[4] = Zinc chelating activity in presence of ZnSO4 after 10 mins by crystal violet staining based assay
[5] = molecular target: T2, Polyunsaturated fatty acid lipoxygenase ALOX12 (Homo sapiens) (UniProt P18054); assay: Inhibition of 12-LOX (unknown origin) at 500 uM preincubated for 1 mins followed by arachidonic acid substrate addition by spectrophotometric method
T2 sequence (whole entry): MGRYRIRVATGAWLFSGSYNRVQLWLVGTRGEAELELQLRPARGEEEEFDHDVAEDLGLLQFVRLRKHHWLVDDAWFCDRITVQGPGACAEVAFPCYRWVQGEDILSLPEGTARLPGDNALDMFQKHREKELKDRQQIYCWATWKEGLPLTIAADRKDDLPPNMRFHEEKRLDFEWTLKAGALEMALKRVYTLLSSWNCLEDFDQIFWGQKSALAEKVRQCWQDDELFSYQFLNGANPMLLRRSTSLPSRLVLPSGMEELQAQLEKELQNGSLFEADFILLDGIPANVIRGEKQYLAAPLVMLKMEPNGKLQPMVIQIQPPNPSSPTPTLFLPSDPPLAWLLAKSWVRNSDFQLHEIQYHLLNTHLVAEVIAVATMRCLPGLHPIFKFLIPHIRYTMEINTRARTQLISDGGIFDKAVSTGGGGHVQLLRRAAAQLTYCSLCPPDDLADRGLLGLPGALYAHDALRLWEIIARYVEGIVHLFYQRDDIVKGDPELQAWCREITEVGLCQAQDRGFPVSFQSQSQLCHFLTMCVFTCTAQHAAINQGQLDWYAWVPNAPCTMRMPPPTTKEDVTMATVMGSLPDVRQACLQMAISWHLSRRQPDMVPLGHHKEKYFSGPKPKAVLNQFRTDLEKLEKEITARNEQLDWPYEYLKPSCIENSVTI

[6] = species: Homo sapiens; assay: (§1) Activation of recombinant His-tagged human cytosolic GPX4 U46C mutant expressed in Escherichia coli M15 assessed as increase in oxidized glutathione-mediated oxidation of NADPH to NADP+ using tert-butyl hydroperoxide as substrate preincubated for 5 mins followed by substrate addition measured for 6 mins by glutathione reductase enzyme coupled fluorescence assay
[7] = molecular target: Prostaglandin G/H synthase 1 (Homo sapiens) (UniProt P23219); assay: Inhibition of COX1 (unknown origin) at 500 uM preincubated for 15 mins followed by arachidonic acid substrate addition in presence of TMPD by spectrophotometric method
Prostaglandin G/H synthase 1 (Homo sapiens), sequence (P23219 whole entry): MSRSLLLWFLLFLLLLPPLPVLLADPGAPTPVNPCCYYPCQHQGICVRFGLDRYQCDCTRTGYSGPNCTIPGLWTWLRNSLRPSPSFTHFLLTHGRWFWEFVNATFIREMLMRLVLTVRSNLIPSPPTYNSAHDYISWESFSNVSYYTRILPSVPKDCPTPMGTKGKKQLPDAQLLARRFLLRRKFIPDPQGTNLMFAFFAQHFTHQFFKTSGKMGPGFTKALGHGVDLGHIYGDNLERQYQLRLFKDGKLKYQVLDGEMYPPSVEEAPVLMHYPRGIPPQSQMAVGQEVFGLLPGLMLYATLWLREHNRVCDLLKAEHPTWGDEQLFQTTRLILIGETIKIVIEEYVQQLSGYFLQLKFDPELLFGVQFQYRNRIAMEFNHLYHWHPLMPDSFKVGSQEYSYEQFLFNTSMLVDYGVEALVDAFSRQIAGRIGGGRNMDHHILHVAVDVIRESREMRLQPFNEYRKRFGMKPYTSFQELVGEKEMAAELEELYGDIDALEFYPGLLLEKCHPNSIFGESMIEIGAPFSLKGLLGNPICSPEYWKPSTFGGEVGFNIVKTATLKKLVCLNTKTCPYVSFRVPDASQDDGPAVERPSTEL

[8] = molecular target: T1, Phospholipid hydroperoxide glutathione peroxidase GPX4 (Homo sapiens); assay: Activation of GPX4 in A23187-stimulated human PMN leukocytes assessed as increase in 15-HETE preincubated for 15 mins followed by A23187 addition and measured after 120 mins by LC-MS analysis
[9] = molecular target: T3, Prostaglandin E synthase (Homo sapiens) (UniProt O14684); assay: Inhibition of mPGES1 (unknown origin) at 500 uM preincubated for 15 mins followed by PGH2 substrate addition and measured after 1 min by EIA relative to control
T3 sequence (whole entry): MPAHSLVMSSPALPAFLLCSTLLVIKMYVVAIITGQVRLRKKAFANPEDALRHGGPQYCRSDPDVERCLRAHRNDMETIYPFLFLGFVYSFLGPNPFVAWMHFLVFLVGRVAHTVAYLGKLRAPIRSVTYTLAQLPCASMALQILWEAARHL

[10] = species: Homo sapiens; assay: as §1, with “recombinant” for “recombinant His-tagged”, “human” for “human cytosolic”, “D21A/U46C double” for “U46C”, “assay relative to GPX4 U46C mutant control” for “assay”
[11] = molecular target: T4, Prostaglandin G/H synthase 2 (Homo sapiens) (UniProt P35354); assay: Inhibition of COX2 (unknown origin) at 500 uM preincubated for 15 mins followed by arachidonic acid substrate addition in presence of TMPD by spectrophotometric method
T4 sequence (whole entry): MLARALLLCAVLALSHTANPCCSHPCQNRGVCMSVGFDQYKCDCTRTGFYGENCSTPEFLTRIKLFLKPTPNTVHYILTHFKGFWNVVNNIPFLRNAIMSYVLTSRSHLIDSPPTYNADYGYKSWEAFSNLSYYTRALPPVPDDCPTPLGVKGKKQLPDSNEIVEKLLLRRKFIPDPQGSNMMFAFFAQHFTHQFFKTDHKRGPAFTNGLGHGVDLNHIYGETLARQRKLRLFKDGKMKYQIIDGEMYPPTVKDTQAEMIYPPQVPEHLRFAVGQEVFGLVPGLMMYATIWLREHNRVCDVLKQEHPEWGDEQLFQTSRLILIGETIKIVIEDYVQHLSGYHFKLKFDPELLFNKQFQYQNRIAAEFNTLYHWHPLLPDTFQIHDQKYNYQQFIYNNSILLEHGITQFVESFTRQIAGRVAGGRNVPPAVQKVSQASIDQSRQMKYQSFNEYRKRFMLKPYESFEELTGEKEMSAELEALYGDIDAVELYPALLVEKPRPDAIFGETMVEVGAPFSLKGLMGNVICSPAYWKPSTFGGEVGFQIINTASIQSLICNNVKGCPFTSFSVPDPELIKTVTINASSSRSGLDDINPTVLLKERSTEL

[12] = species: Homo sapiens; assay: as §1, with “recombinant” for “recombinant His-tagged”, “human” for “human cytosolic”, “D21A/D23A/U46C” for “U46C”, “assay relative to GPX4 U46C mutant control” for “assay”

In the case of `NS(=O)(=O)c1ccc(NC(S)=NCc2ccc(Cl)cc2)cc1`, the Activity [1] is reported as “Dose-dependent effect”, the Activity [2] is reported as “inactive” and the inhibition [3] is reported as “Dose-dependent effect”. For the same molecule, the Activity [4] was “inactive”, the inhibition [5] was “inactive” and the Activity [6] was “Dose-dependent effect”. For the same molecule, the EC150 [6] was 248 µM, the inhibition [7] was “inactive” and the Activity [8] was “Dose-dependent effect”. For the same molecule, the inhibition [9] was 23%, the EC150 [10] was 618 µM and the inhibition [11] was “inactive”. It also gave an EC150 [12] of over 1000 µM.
